Reference: patent US10550144B2, “6-aryl-9-glycosylpurines and use thereof” (UNIVERZITA PALACKEHO V OLOMOUCI, priority 2014, dated 2020)

system: Triticum aestivum cv. Hereward detached leaf segments; experiment: Senescence bioassay on detached wheat leaf segments (chlorophyll retention); format: in vivo; conditions: 96 h incubation in the dark at 25° C.; tested 10^−8 M to 10^−4 M
Method: Seeds of winter wheat, Triticum aestivum cv. Hereward, were washed under running water for 24 hours and then sown on vermiculite soaked with Knop's solution. They were placed in the growth chamber at 25° C. with a 16/8 h light period at 50 μmol·m^−2·s^−1. After 7 days, the first leaf was fully developed and the second leaf had started to grow. A tip section of the first leaf, approximately 35 mm long, was removed from 5 seedlings and trimmed slightly to a combined weight of 100 mg. The basal ends of the five leaf tips were placed in the wells of a microtiter polystyrene plate containing 150 μL of the tested derivative solution each. The entire plate was inserted into a plastic box lined with paper tissues soaked in distilled water to prevent leaf sections from drying out. After 96 h incubation in the dark at 25° C., the leaves were removed and chlorophyll extracted by heating at 80° C. for 10 min in 5 mL of 80% ethanol (v/v). The sample volume was then restored to 5 mL by the addition of 80% ethanol (v/v). The absorbance of the extract was recorded at 665 nm. In addition, chlorophyll extracts from fresh leaves and leaf tips incubated in deionised water were measured. The results are means of five replicates and the entire test was repeated twice. […] The compounds to be tested were dissolved in dimethylsulfoxide (DMSO) and the solution brought up to 10^−3M with distilled water. […] The activity obtained for 10^−4 M of BAP was postulated as 100%.

SMILES	maximum effective concentration
OC[C@H]1O[C@@H](n2cnc3c(NCc4ccco4)ncnc32)[C@@H](O)[C@@H]1O [6-furfurylamino-9-β-D-arabinofuranosylpurine]	10^−4 mol · l^−1
OC[C@H]1O[C@@H](n2cnc3c(NCc4cccc(F)c4)ncnc32)[C@@H](O)[C@@H]1O [6-(3-fluorobenzylamino)-9-β-D-arabinofuranosylpurine]	10^−4 mol · l^−1
OC[C@H]1O[C@@H](n2cnc3c(NCc4cccc(Cl)c4)ncnc32)[C@@H](O)[C@@H]1O [6-(3-chlorobenzylamino)-9-β-D-arabinofuranosylpurine]	10^−4 mol · l^−1
COc1ccc(CNc2ncnc3c2ncn3[C@@H]2O[C@H](CO)[C@@H](O)[C@@H]2O)cc1OC [6-(3,4-dimethoxybenzylamino)-9-β-D-arabinofuranosylpurine]	10^−4 mol · l^−1
OC[C@H]1O[C@@H](n2cnc3c(NCc4ccccc4Br)ncnc32)[C@@H](O)[C@@H]1O [6-(2-bromobenzylamino)-9-β-D-arabinofuranosylpurine]	10^−5 mol · l^−1
OC[C@H]1O[C@@H](n2cnc3c(NCc4ccc(Br)cc4)ncnc32)[C@@H](O)[C@@H]1O [6-(4-bromobenzylamino)-9-β-D-arabinofuranosylpurine]	10^−4 mol · l^−1
OC[C@H]1O[C@@H](n2cnc3c(NCc4cccc(I)c4)ncnc32)[C@@H](O)[C@@H]1O [6-(3-iodobenzylamino)-9-β-D-arabinofuranosylpurine]	10^−4 mol · l^−1
OC[C@H]1O[C@@H](n2cnc3c(NCc4cccc(Br)c4)ncnc32)[C@@H](O)[C@@H]1O [6-(3-bromobenzylamino)-9-β-D-arabinofuranosylpurine]	10^−4 mol · l^−1

same assay, conditions: chlorophyll content at the maximum effective concentration; 96 h in the dark

SMILES	activity (%) [10^−4 mol · l^−1 BAP = 100%] [%]
OC[C@H]1O[C@@H](n2cnc3c(NCc4ccc(Cl)cc4Cl)ncnc32)[C@H](O)[C@@H]1O [6-(2,4-dichlorbenzylamino)-9-riboside, reference compound]	5 ± 1
